Measured values as given in paper PMC9386018, “A lymphatic-absorbed multi-targeted kinase inhibitor for myelofibrosis therapy” (Nature Communications, 2022).
Where “and” joins values, the source holds several entries; their conditions need not be identical. Equal entries are not always repeated.

Assays:
[1] = system: MPL^W515L mouse model of myelofibrosis; test: MPL^W515L MF mouse model: histology of spleen, liver and bone marrow; format: in vivo; conditions: MPL^W515L mice, oral 400 mg kg^−1 daily, 28 d
Experimental: Generation of the MPL^W515L mutant MF mouse model was similar to previously described methods. Briefly, female donor BALB/c mice were treated with 5-fluorouracil at 150 mg kg^−1 intraperitoneal for 5 d before harvesting bone marrow. Hematopoietic stem and progenitor cells were enriched with CD117 magnetic beads (Miltenyi Biotec), transduced with retrovirus containing MSCV-hMPL W515L-IRES-GFP, then 50,000 transduced HSPCs along with 300,000 total non-stem cells were injected intravenously into lethally irradiated female BALB/c recipients. Development of MF was evaluated by spleen volumes using MRI beginning ~14 d following bone marrow transplantation (BMT) as outlined below, continuing weekly until end of the study. Mice were separated into equal groups based on spleen size ~14–21 d post-BMT, then treated with vehicle (Maisine CC) or LP-182 at 400 mg kg^−1 daily by oral gavage for 14–28 d or until mice were euthanized using guidelines for end stage illness and humane endpoints. Untreated healthy control animals were used for experimental comparisons. […] Soluble protein extracts were isolated by centrifugation at 15,000 x g for 15 min at 4 °C, quantified using Micro BCA protein assay (Thermo Scientific), then mixed with reducing 6X SDS-PAGE loading dye, heated for 8 min at 95 °C, and stored at −20 °C until immuno-blot analysis. […]

[2] = system: MPL^W515L mouse model of myelofibrosis; test: MPL^W515L MF mouse model: spleen volume by MRI (Study 1); format: in vivo; conditions: MPL^W515L mice; for Spleen volume to body weight ratio (mm3/g): individual animals
Experimental: Generation of the MPL^W515L mutant MF mouse model was similar to previously described methods. Briefly, female donor BALB/c mice were treated with 5-fluorouracil at 150 mg kg^−1 intraperitoneal for 5 d before harvesting bone marrow. Hematopoietic stem and progenitor cells were enriched with CD117 magnetic beads (Miltenyi Biotec), transduced with retrovirus containing MSCV-hMPL W515L-IRES-GFP, then 50,000 transduced HSPCs along with 300,000 total non-stem cells were injected intravenously into lethally irradiated female BALB/c recipients. Development of MF was evaluated by spleen volumes using MRI beginning ~14 d following bone marrow transplantation (BMT) as outlined below, continuing weekly until end of the study. Mice were separated into equal groups based on spleen size ~14–21 d post-BMT, then treated with vehicle (Maisine CC) or LP-182 at 400 mg kg^−1 daily by oral gavage for 14–28 d or until mice were euthanized using guidelines for end stage illness and humane endpoints. Untreated healthy control animals were used for experimental comparisons. Tissues were harvested and processed for flow cytometry (as described above), LCMS/MS, immuno-blotting, and histological analysis (as described in Supplementary Methods) at the defined study endpoint(s), approximately 1–2 h post-treatment with vehicle or LP-182. Briefly, blood samples were collected, transferred into K2-EDTA tubes (BD Microtainer), inverted gently to mix, then centrifuged at 2000 x g for 15 min. […] Dissection and bone marrow isolation from mouse femur and tibia was performed similar to previously described methods. Briefly, the hind limbs from mice were dissected, muscle and connective tissue removed, and bones were frozen at −80 °C. Femur and tibia were thawed separately, placed knee-end down in 18 gauge needle-pierced 0.5 mL microcentrifuge tubes nested inside 1.5 or 2 mL microcentrifuge tubes containing 1.4 mm ceramic beads (Fisher Scientific), then bone marrow was isolated by centrifugation at 10,000 x g for 1 min and processed for analysis by LCMS/MS (above; femur) or immuno-blotting (tibia). […] Soluble protein extracts were isolated by centrifugation at 15,000 x g for 15 min at 4 °C, quantified using Micro BCA protein assay (Thermo Scientific), then mixed with reducing 6X SDS-PAGE loading dye, heated for 8 min at 95 °C, and stored at −20 °C until immuno-blot analysis. Whole cell lysates were resolved by 10% SDS-PAGE, transferred to PVDF (Immobilon-P; MilliporeSigma), then membranes were blocked with 5% BSA (Equitech-Bio) in TBS containing 0.1% Tween-20 (TBST) for 1 h at room temperature with gentle orbital shaking. Membranes were incubated with primary antibodies in 5% BSA/TBST overnight at 4 °C or 5% skim milk/TBST (Lab Scientific) for 1 h at room temperature, then washed with TBST, and incubated with HRP-conjugated secondary antibodies in 5% skim milk/TBST for 1.5 h at room temperature, all with gentle platform rocking. Membranes were washed with TBST, then visualized by chemiluminescence on a BioRad ChemiDoc MP Imaging System using SuperSignal West PicoPLUS or West Femto Chemiluminescent Substrate (Thermo Scientific). Membranes were stripped using Restore PLUS Western Blot Stripping Buffer (Thermo Scientific) as per manufacturer’s instructions and re-probed with additional primary antibodies as described above. […] All antibodies were used at dilutions recommended by their specified manufacturers or optimized empirically. Additional reagents were purchased from MilliporeSigma (St. Louis, MO) unless otherwise specified. Tissues for histology were formalin-fixed, paraffin-embedded, sectioned, and stained with Hematoxylin and Eosin (H&E) to assess cellularity and tissue morphology, with Reticulin Stain Kit (Connective Tissue Stain; Abcam) to assess fibrosis, or processed for immunohistochemistry staining with GFP to assess MPL^W515L-positive cellularity. […]

O=C(NOCCOCCOCCOCCC(=O)N1CCN(c2cnc3ccc(-c4cnc(Cl)c(NS(=O)(=O)c5ccc(F)cc5)c4)cc3n2)CC1)c1ccc(F)c(F)c1Nc1ccc(I)cc1F [LP-182, N-(2-(2-(2-(3-(4-(7-(6-chloro-5-((4-fluorophenyl)sulfonamido)pyridin-3-yl)quinoxalin-2-yl)piperazin-1-yl)-3-oxopropoxy)ethoxy)ethoxy)ethoxy)-3,4-difluoro-2-((2-fluoro-4-iodophenyl)amino)benzamide]
extramedullary hematopoiesis, number of MKs and MPL^W515L-positive MKs [1]: reduced
reticulin fibrosis in bone marrow [1]: diminution of reticulin fibrosis
Spleen volume to body weight ratio (mm3/g) ([2]; LP-182 group, treatment length 0 d (baseline)): 31.0875 mm3/g and 17.4312 mm3/g and 19.0791 mm3/g and 34.919 mm3/g and 29.5281 mm3/g
Spleen volume to body weight ratio (mm3/g) ([2]; LP-182 group, treatment length -7 d (before treatment)): 15.1103 mm3/g and 6.53 mm3/g and 9.708 mm3/g and 8.386 mm3/g and 11.4368 mm3/g
reduction of spleen volume compared to vehicle ([2]; oral 400 mg kg^−1 daily, after 14 d): ~ 35%
Spleen volume to body weight ratio (mm3/g) ([2]; oral 400 mg kg^−1 daily, treatment length 7 d): 26.2397 mm3/g and 11.9227 mm3/g and 23.2289 mm3/g and 24.8013 mm3/g and 24.121 mm3/g
Spleen volume to body weight ratio (mm3/g) ([2]; oral 400 mg kg^−1 daily, treatment length 14 d): 25.0148 mm3/g and 4.765 mm3/g and 27.3514 mm3/g and 25.4021 mm3/g and 32.6974 mm3/g
Spleen volume to body weight ratio (mm3/g) ([2]; oral 400 mg kg^−1 daily, treatment length 21 d): 28.0008 mm3/g and 4.203 mm3/g and 24.753 mm3/g and 31.0963 mm3/g and 27.5586 mm3/g
